Data reported in ChEMBL document CHEMBL1795311, “Synthesis, antiproliferative activity, and mechanism of action of a series of 2-{[(2E)-3-phenylprop-2-enoyl]amino}benzamides” (Eur J Med Chem, 2011).

Assays:
K562 [1] = experiment: Growth inhibition of human K562 cells after 48 hrs by trypan blue assay; format: functional, cell-based; conditions: K562, 48 h
K562 [2] = experiment: Antiproliferative activity against human K562 cells at 10 uM after 48 hrs by trypan blue assay; format: functional; conditions: K562, 48 h, read-out: GI

NC(=O)c1cc(Br)ccc1NC(=O)/C=C/c1cccc(Cl)c1
IC50 (K562 [1]): > 10 µM | inhibition of growth at 10 µM (K562 [2]): 25.5%

NC(=O)c1cc(Br)ccc1NC(=O)/C=C/c1cccc(Br)c1
IC50 (K562 [1]): > 10 µM | inhibition of growth at 10 µM (K562 [2]): 45.9%

NC(=O)c1cc(Cl)ccc1NC(=O)/C=C/c1ccc(Cl)cc1
IC50 (K562 [1]): > 10 µM | inhibition of growth at 10 µM (K562 [2]): 31%

Cc1ccc(/C=C/C(=O)Nc2ccc(Br)cc2C(N)=O)cc1
IC50 (K562 [1]): > 10 µM | inhibition of growth at 10 µM (K562 [2]): 45.9%

Cc1ccccc1/C=C/C(=O)Nc1ccc(Br)cc1C(N)=O
IC50 (K562 [1]): > 10 µM | inhibition of growth at 10 µM (K562 [2]): 43.2%

NC(=O)c1ccccc1NC(=O)/C=C/c1ccccc1
IC50 (K562 [1]): > 10 µM | inhibition of growth at 10 µM (K562 [2]): 14.2%

Cc1cccc(/C=C/C(=O)Nc2ccc(Cl)cc2C(N)=O)c1
IC50 (K562 [1]): > 10 µM | inhibition of growth at 10 µM (K562 [2]): 37.8%

Cc1cccc(/C=C/C(=O)Nc2ccc(Br)cc2C(N)=O)c1
IC50 (K562 [1]): > 10 µM | inhibition of growth at 10 µM (K562 [2]): 43.8%

NC(=O)c1cc(Br)ccc1NC(=O)/C=C/c1ccccc1Br
IC50 (K562 [1]): > 10 µM | inhibition of growth at 10 µM (K562 [2]): 46.2%

NC(=O)c1cc(Cl)ccc1NC(=O)/C=C/c1ccccc1Br
IC50 (K562 [1]): 10 µM | inhibition of growth at 10 µM (K562 [2]): 49%

Cc1ccc(/C=C/C(=O)Nc2ccc(Cl)cc2C(N)=O)cc1
IC50 (K562 [1]): 6.3 µM | inhibition of growth at 10 µM (K562 [2]): 64%

Cc1ccccc1/C=C/C(=O)Nc1ccc(I)cc1C(N)=O
IC50 (K562 [1]): > 10 µM | inhibition of growth at 10 µM (K562 [2]): 26.3%

NC(=O)c1cc(Cl)ccc1NC(=O)/C=C/c1cccc(Cl)c1
IC50 (K562 [1]): > 10 µM | inhibition of growth at 10 µM (K562 [2]): 28.2%

Cc1ccccc1/C=C/C(=O)Nc1ccc(Cl)cc1C(N)=O
IC50 (K562 [1]): 9.5 µM | inhibition of growth at 10 µM (K562 [2]): 52.2%

NC(=O)c1cc(Cl)ccc1NC(=O)/C=C/c1ccccc1Cl
IC50 (K562 [1]): 7.4 µM | inhibition of growth at 10 µM (K562 [2]): 58%

NC(=O)c1cc(Br)ccc1NC(=O)/C=C/c1ccccc1Cl
IC50 (K562 [1]): 8.1 µM | inhibition of growth at 10 µM (K562 [2]): 59%

COc1cc2c(c(OC)c1OC)-c1ccc(OC)c(=O)cc1[C@@H](NC(C)=O)CC2 [COLCHICINE]
IC50 (K562 [1]): 0.02 µM | inhibition of growth at 10 µM (K562 [2]): 63.6%

NC(=O)c1cc(Br)ccc1NC(=O)/C=C/c1ccc(Cl)cc1
IC50 (K562 [1]): > 10 µM | inhibition of growth at 10 µM (K562 [2]): 22%

NC(=O)c1cc(Cl)ccc1NC(=O)/C=C/c1cccc(Br)c1
IC50 (K562 [1]): > 10 µM | inhibition of growth at 10 µM (K562 [2]): 27%
